Measurements reported in patent US20050026189A1, “Microbial operons” (priority 2003, published 2005).
≈ marks a conversion by molar mass, not a printed value. Read-outs that look alike come from different tables or passages of the source. Positions of bridges follow the written chain, without caps; N, C: chain ends. Non-standard residues stand in square brackets, D forms with d. Residues, ends and D or L forms follow the SMILES beside them. *: point of attachment. Ileψ(thiazoline)Cys = CC[C@H](C)[C@H](N)C1=N[C@H](C(=O)*)CS1; dOrn = NCCC[C@@H](N)C(=O)O

Tests used:
[1] = tested on: E. coli transcribing antisense RNA to rplL and rplJ (AS-rplL/J); assay: microbe, parasite or virus in culture; type: cell-based; settings: for Fold Increase in Sensitivity: IC50 without IPTG versus IC50 with 400 μM IPTG; for Sensitivity Increased?: statistically significant decrease in the IC50 value in the presence of inducer (IPTG); for IC50: Escherichia coli
Experimental: The effectiveness of the above assays was validated using proliferation-required genes from E. coli which were identified using procedures similar to those described above. Antibiotics of various chemical classes and modes of action were purchased from Sigma Chemicals (St. Louis, Mo.). Stock solutions were prepared by dissolving each antibiotic in an appropriate aqueous solution based on information provided by the manufacturer. The final working solution of each antibiotic contained no more than 0.2% (w/v) of any organic solvent. To determine their potency against a bacterial strain engineered for transcription of an antisense comprising a nucleotide sequence complementary to a proliferation-required 50S ribosomal protein, each antibiotic was serially diluted two- or three-fold in growth medium supplemented with the appropriate antibiotic for maintenance of the antisense construct. At least ten dilutions were prepared for each antibiotic. 25 μL aliquots of each dilution were transferred to discrete wells of a 384-well microplate (the assay plate) using a multi-channel pipette. Quadruplicate wells were used for each dilution of an antibiotic under each treatment condition (plus and minus inducer). Each assay plate contained twenty wells for cell growth controls (growth medium replacing antibiotic), ten wells for each treatment (plus and minus inducer, in this example IPTG). Assay plates were usually divided into the two treatments: half the plate containing induced cells and an appropriate concentrations of inducer (in this example IPTG) to maintain the state of induction, the other half containing non-induced cells in the absence of IPTG.
Cells for the assay were prepared as follows. Bacterial cells containing a construct, from which transcription of antisense nucleic acid comprising a nucleotide sequence complementary to rplL and rplJ (AS-rplL/J), which encode proliferation-required 50S ribosomal subunit proteins, is inducible in the presence of IPTG, were grown into exponential growth (OD600 0.2 to 0.3) and then diluted 1:100 into fresh medium containing either 400 μM or 0 μM inducer (IPTG). These cultures were incubated at 37° C. for 2.5 hr. After a 2.5 hr incubation, induced and non-induced cells were respectively diluted into an assay medium at a final OD600 value of 0.0004. The medium contained an appropriate concentration of the antibiotic for the maintenance of the antisense construct. In addition, the medium used to dilute induced cells was supplemented with 800 μM IPTG so that addition to the assay plate would result in a final IPTG concentration of 400 μM. Induced and non-induced cell suspensions were dispensed (25 μl/well) into the appropriate wells of the assay plate as discussed previously. The plate was then loaded into a plate reader, incubated at constant temperature, and cell growth was monitored in each well by the measurement of light scattering at 595 nm. Growth was monitored every 5 minutes until the cell culture attained a stationary growth phase. For each concentration of antibiotic, a percentage inhibition of growth was calculated at the time point corresponding to mid-exponential growth for the associated control wells (no antibiotic, plus or minus IPTG). For each antibiotic and condition (plus or minus IPTG), a plot of percent inhibition versus log of antibiotic concentration was generated and the IC50 determined.

[2] = tested on: Staphylococcus aureus cells transcribing antisense to gyrB; assay: Antibiotic potency in Staphylococcus aureus cells with and without xylose-induced antisense to the Beta subunit of DNA gyrase (FIG. 10); type: cell-based; settings: 12 mM xylose versus 0 mM xylose; antisense to β subunit of gyrase
Experimental: Antibiotics of various chemical classes and modes of action were purchased from chemical suppliers, for example Sigma Chemicals (St. Louis, Mo). Stock solutions were prepared by dissolving each antibiotic in an appropriate aqueous solution based on information provided by the manufacturer. The final working solution of each antibiotic contained no more than 0.2% (w/v) of any organic solvent.
To determine its potency against a bacterial strain containing an antisense nucleic acid comprising a nucleotide sequence complementary to the nucleotide sequence encoding the Beta subunit of DNA gyrase (which is required for proliferation) under the control of a xylose inducible promoter, each antibiotic was serially diluted two- or three-fold in growth medium supplemented with the appropriate antibiotic for maintenance of the antisense construct. At least ten dilutions were prepared for each antibiotic.
Aliquots (25 μL) of each dilution were transferred to discrete wells of a 384-well microplate (the assay plate) using a multi-channel pipette. Quadruplicate wells were used for each dilution of an antibiotic under each treatment condition (plus and minus inducer). Each assay plate contained twenty wells for cell growth controls (growth medium, no antibiotic), ten wells for each treatment (plus and minus inducer, xylose, in this example). Half the assay plate contained induced cells (in this example Staphylococcus aureus cells) and appropriate concentrations of inducer (xylose, in this example) to maintain the state of induction while the other half of the assay plate contained non-induced cells maintained in the absence of inducer.
Cells of a bacterial clone containing a construct in which transcription of antisense comprising a nucleotide sequence complementary to the sequence encoding the Beta subunit of DNA gyrase under the control of the xylose inducible promoter (S1M10000001F08) were grown into exponential growth (OD600 0.2 to 0.3) and then diluted 1:100 into fresh medium containing either 12 mM or 0 mM inducer (xylose). These cultures were incubated at 37° C. for 2.5 hr. The presence of inducer (xylose) in the medium initiates and maintains production of antisense RNA from the antisense construct. After a 2.5 hr incubation, induced and non-induced cells were respectively diluted into an assay medium containing an appropriate concentration of the antibiotic for the maintenance of the antisense construct. In addition, medium used to dilute induced cells was supplemented with 24 mM xylose so that addition to the assay plate would result in a final xylose concentration of 12 mM. The cells were diluted to a final OD600 value of 0.0004.
Induced and non-induced cell suspensions were dispensed (25 μl/well) into the appropriate wells of the assay plate as discussed previously. The plate was then loaded into a plate reader and incubated at constant temperature while cell growth was monitored in each well by the measurement of light scattering at 595 nm. Growth was monitored every 5 minutes until the cell culture attained a stationary growth phase. For each concentration of antibiotic, a percentage inhibition of growth was calculated at the time point corresponding to mid-exponential growth for the associated control wells (no antibiotic, plus or minus xylose). For each antibiotic and condition (plus or minus xylose), plots of percent inhibition versus Log of antibiotic concentration were generated and IC50s, determined.

[H]/N=C(/N)N[C@H]1[C@H](O)[C@@H](O)[C@H](O[C@@H]2O[C@@H](C)[C@](O)(C=O)[C@H]2O[C@@H]2O[C@@H](CO)[C@H](O)[C@@H](O)[C@@H]2NC)[C@@H](N/C(N)=N\[H])[C@@H]1O [Streptomycin]
Fold Increase in Sensitivity [1]: 70 Fold
Sensitivity Increased? [1]: Yes

NC[C@H]1O[C@H](O[C@H]2[C@H](O)[C@@H](O[C@H]3O[C@H](CO)[C@@H](O)[C@H](N)[C@H]3O)[C@H](N)C[C@@H]2N)[C@H](N)C[C@@H]1O [Tobramycin]
Fold Increase in Sensitivity [1]: 51 Fold
Sensitivity Increased? [1]: Yes
potency in induced cells as compared to uninduced cells [2]: not significantly different

O=C(N[C@H](CO)[C@H](O)c1ccc([N+](=O)[O-])cc1)C(Cl)Cl [Chloramphenicol]
Fold Increase in Sensitivity [1]: 307 Fold
Sensitivity Increased? [1]: Yes

CCC[C@@H]1C[C@@H](C(=O)N[C@@H]([C@H]2O[C@H](SC)[C@H](O)[C@@H](O)[C@H]2O)[C@@H](C)O)N(C)C1 [Lincomycin]
Fold Increase in Sensitivity [1]: 145 Fold
Sensitivity Increased? [1]: Yes
potency in induced cells as compared to uninduced cells [2]: not significantly different

CC1COc2c(N3CCN(C)CC3)c(F)cc3c(=O)c(C(=O)O)cn1c23 (stereo not drawn) [Ofloxacin]
Fold Increase in Sensitivity [1]: 1 Fold

CO/N=C(\C(=O)N[C@@H]1C(=O)N2C(C(=O)O)=C(COC(C)=O)CS[C@H]12)c1csc(N)n1 [Cefotaxime]
Fold Increase in Sensitivity [1]: 1 Fold
Sensitivity Increased? [1]: No
potency in induced cells as compared to uninduced cells [2]: not significantly different

CO[C@@]1(NC(=O)Cc2cccs2)C(=O)N2C(C(=O)O)=C(COC(N)=O)CS[C@@H]21 [Cefoxitin]
Fold Increase in Sensitivity [1]: 1 Fold
Sensitivity Increased? [1]: No
potency in induced cells as compared to uninduced cells [2]: not significantly different

CN(C)c1ccc(O)c2c1C[C@H]1C[C@H]3[C@H](N(C)C)C(O)=C(C(N)=O)C(=O)[C@@]3(O)C(O)=C1C2=O [Minocycline]
Fold Increase in Sensitivity [1]: 172 Fold

CN[C@@H]1[C@H](O)[C@H](NC)[C@H]2O[C@@]3(O)C(=O)C[C@@H](C)O[C@H]3O[C@@H]2[C@H]1O [Spectinomycin]
Sensitivity Increased? [1]: Yes

CN(C)[C@@H]1C(O)=C(C(N)=O)C(=O)[C@@]2(O)C(O)=C3C(=O)c4c(O)cccc4[C@@](C)(O)[C@H]3C[C@@H]12 [Tetracycline]
Fold Increase in Sensitivity [1]: 109 Fold

COc1cc(Cc2cnc(N)nc2N)cc(OC)c1OC [Trimethoprim]
potency in induced cells as compared to uninduced cells [2]: not significantly different

Gentamicin
Fold Increase in Sensitivity [1]: 141 Fold
IC50 (+IPTG) ([1]; induced cells, 400 μM IPTG): 0.01919 µg/mL
IC50 (−IPTG) ([1]; non-induced cells, 0 μM IPTG): 2.715 µg/mL
Sensitivity Increased? [1]: Yes

C[C@H]1c2cccc(O)c2C(=O)C2=C(O)[C@]3(O)C(=O)C(C(N)=O)=C(O)[C@@H](N(C)C)[C@@H]3[C@@H](O)[C@@H]21 [Doxycycline]
Fold Increase in Sensitivity [1]: 15 Fold

CC[C@H](C)[C@H](N)C1=N[C@H](C(=O)N[C@@H](CC(C)C)C(=O)N[C@H](CCC(=O)O)C(=O)N[C@H](C(=O)N[C@H]2CCCCNC(=O)[C@H](CC(N)=O)NC(=O)[C@@H](CC(=O)O)NC(=O)[C@H](Cc3cnc[nH]3)NC(=O)[C@@H](Cc3ccccc3)NC(=O)[C@H]([C@@H](C)CC)NC(=O)[C@@H](CCCN)NC2=O)[C@@H](C)CC)CS1 [Bacitracin] ({Ileψ(thiazoline)Cys}-L[dE]IK[dOrn]I[dF]H[dD]N; lactam 4-C)
Fold Increase in Sensitivity [1]: 1 Fold
Sensitivity Increased? [1]: No

CC(=O)O[C@H]1C[C@@]2(C)[C@@H](C[C@@H](O)[C@H]3[C@@]4(C)CC[C@@H](O)[C@@H](C)[C@@H]4CC[C@@]32C)/C1=C(\CCC=C(C)C)C(=O)O [Fusidic acid]
Fold Increase in Sensitivity [1]: 94 Fold
Sensitivity Increased? [1]: Yes
potency in induced cells as compared to uninduced cells [2]: not significantly different

CN[C@H](CC(C)C)C(=O)N[C@H]1C(=O)N[C@@H](CC(N)=O)C(=O)N[C@H]2C(=O)N[C@H]3C(=O)N[C@H](C(=O)N[C@H](C(=O)O)c4cc(O)cc(O)c4-c4cc3ccc4O)[C@H](O)c3ccc(c(Cl)c3)Oc3cc2cc(c3O[C@@H]2O[C@H](CO)[C@@H](O)[C@H](O)[C@H]2O[C@H]2C[C@](C)(N)[C@H](O)[C@H](C)O2)Oc2ccc(cc2Cl)[C@H]1O [Vancomycin]
IC50 ([1]; read-out: IC50 (+IPTG)): 72.5 µg/mL (≈ 50.1 µM)
IC50 ([1]; read-out: IC50 (−IPTG)): 145 µg/mL (≈ 100 µM)
Fold Increase in Sensitivity [1]: 2 Fold
Sensitivity Increased? [1]: No
potency in induced cells as compared to uninduced cells [2]: not significantly different
